Experimental findings from patent US7767232B2, “Control of nitric oxide bioactivity by perfluorocarbons” (New York University, priority 2002, dated 2010) are described below.

The subject of test [1] is nitrosothiols formation. Kind of test: Effect of α-dihydrolipoic acid on nitrosothiol formation and vasorelaxation in the presence of perfluorocarbons. The conditions noted are these: FIG. 8, in vitro and in vivo. The source says: If delivered at small concentrations, i.e., less than 1% v/v, and in conjunction with low molecular weight nucleophiles, such as thiols or mixtures of thiols, perfluorocarbons act as a powerful vasodilator rather than as a vasoconstrictor. NO^+ originated from N2O3 in the perfluorocarbon micelles can be transferred to various low molecular weight nucleophiles, exemplified as RSH, by two possible pathways, as shown in FIG. 7. Direct attack on RSH is possible at the surface of perfluorocarbon micelles or inside the micelles, if the RSH were hydrophobic enough to enter it, as shown in pathway I of FIG. 7. Additionally, NO can reach various RSH via a transnitrosation reaction by using a lipophilic low molecular weight “shuttle”, as shown in FIG. 7. One example of such an NO shuttle is α-lipoic acid (α-LA), which is normally present in the circulation at low (micromolar) concentrations (Keipert, 2001). α-lipoic acid has a highly hydrophobic tail (FIG. 7A), which can readily penetrate the perfluorocarbon micelle where it is nitrosated. Since both SH groups of α-dihydro-lipoic acid are located next to each other, upon nitrosation they would almost immediately form an S-S adduct and release NO^+. […]

Test [2] concerns rats. Kind of test: Relation of perfluorocarbon hemodynamic effects to NO: L-NAME and potassium nitrite treated rats, mean arterial pressure. The test is classed as in vivo, rat.
The test system of test [3] is rats. Kind of test: Plasma low molecular weight S-nitrosothiols and mean arterial pressure after Perftoran and thiols in rats. Type of test: in vivo, rat. To be noted: cysteine 1 mg/kg intravenously, without perfluorocarbon. The method, then:
Plasma low molecular weight-S-nitrosothiols were determined using CuCl2 to displace NO from thiol residues followed by electrochemical detection of released NO (Rafikova et al., 2002). The concentration of CuCl2, 40 μM, was selected to decompose predominantly low molecular weight S-nitrosothiols.

Regarding `O=C(O)CCCC[C@@H](S)CCS` [α-dihydrolipoic acid], in test [1], the “effect on formation of nitrosothiols and vasorelaxation” value is “simulating effect”.
For the compound `O=N[O-].[K+]` [potassium nitrite], the “effect on mean arterial pressure after L-NAME” value in test [2] (1 mg/kg potassium nitrite about 90 minutes after L-NAME) is listed as “partially restored mean arterial pressure”. Besides, the “mean arterial pressure above the baseline” value in test [2] (nitrite-treated (L-NAME) rats without Perftoran, same time) is recorded as “about 24 mmHg”.
Consider `N[C@@H](CS)C(=O)O` [cysteine, L-cysteine], for which, in test [3], the “effect on blood pressure” value was “virtually no effect” and the “effect on plasma low molecular weight S-nitrosothiols” value was “virtually no effect”.
